# Reference: PubChem BioAssay (NCI)
#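 How tested: cells in 96-well plates exposed to compound for 48 hours at five concentrations. TGI is the concentration that stops growth completely.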
# How the values were obtained:
# Assay in all cases: NCI anticancer screen, dose series, 48 h
# IGROV1 ovarian = tested on: IGROV1 ovarian
# NCI-H522 lung = tested on: NCI-H522 lung
# OVCAR-4 ovarian = tested on: OVCAR-4 ovarian
# 786-0 renal = tested on: 786-0 renal
# NCI-H23 lung = tested on: NCI-H23 lung
# HT29 colon = tested on: HT29 colon
# MALME-3M melanoma = tested on: MALME-3M melanoma
# HOP-62 NSCLC = tested on: HOP-62 NSCLC
# LOX IMVI melanoma = tested on: LOX IMVI melanoma
# SK-MEL-28 melanoma = tested on: SK-MEL-28 melanoma
# UO-31 renal = tested on: UO-31 renal
# EKVX NSCLC = tested on: EKVX NSCLC
# SK-OV-3 ovarian = tested on: SK-OV-3 ovarian
# SNB-75 CNS = tested on: SNB-75 CNS
# TK-10 renal = tested on: TK-10 renal
# K-562 leukemia = tested on: K-562 leukemia
# KM20L2 colon = tested on: KM20L2 colon
# SN12C renal = tested on: SN12C renal
# DMS 273 small cell lung = tested on: DMS 273 small cell lung
# M19-MEL melanoma = tested on: M19-MEL melanoma
# HOP-18 NSCLC = tested on: HOP-18 NSCLC
# HCT-15 colon = tested on: HCT-15 colon
# XF 498 CNS = tested on: XF 498 CNS
# A498 renal = tested on: A498 renal
# SK-MEL-2 melanoma = tested on: SK-MEL-2 melanoma
# DLD-1 colon = tested on: DLD-1 colon
# UACC-62 melanoma = tested on: UACC-62 melanoma
# HL-60(TB) leukemia = tested on: HL-60(TB) leukemia
# CAKI-1 renal = tested on: CAKI-1 renal
# COLO 205 colon = tested on: COLO 205 colon
# HCC-2998 colon = tested on: HCC-2998 colon
# MOLT-4 leukemia = tested on: MOLT-4 leukemia
# SW-620 colon = tested on: SW-620 colon
# SF-295 CNS = tested on: SF-295 CNS
# SF-268 CNS = tested on: SF-268 CNS
# KM12 colon = tested on: KM12 colon
# UACC-257 melanoma = tested on: UACC-257 melanoma
# LXFL 529 NSCLC = tested on: LXFL 529 NSCLC
# CCRF-CEM leukemia = tested on: CCRF-CEM leukemia
# SR leukemia = tested on: SR leukemia
# OVCAR-3 ovarian = tested on: OVCAR-3 ovarian
# NCI-H460 lung = tested on: NCI-H460 lung
# A549 NSCLC = tested on: A549 NSCLC
# HOP-92 NSCLC = tested on: HOP-92 NSCLC
# M14 melanoma = tested on: M14 melanoma
# OVCAR-8 ovarian = tested on: OVCAR-8 ovarian
# OVCAR-5 ovarian = tested on: OVCAR-5 ovarian
# HCT-116 colon = tested on: HCT-116 colon
# ACHN renal = tested on: ACHN renal
# SNB-19 CNS = tested on: SNB-19 CNS
# SK-MEL-5 melanoma = tested on: SK-MEL-5 melanoma
# SF-539 CNS = tested on: SF-539 CNS
# DMS 114 small cell lung = tested on: DMS 114 small cell lung
# U251 CNS = tested on: U251 CNS
# RPMI-8226 leukemia = tested on: RPMI-8226 leukemia
# RXF 393 renal = tested on: RXF 393 renal
# NCI-H226 lung = tested on: NCI-H226 lung
# SNB-78 CNS = tested on: SNB-78 CNS
smiles,measurement,setting,value
COc1cc(Nc2cnc3cc(N)ccc3n2)cc(OC)c1OC,TGI,IGROV1 ovarian,> 100 µM
same,TGI,NCI-H522 lung,> 100 µM
same,TGI,OVCAR-4 ovarian,> 100 µM
same,TGI,786-0 renal,> 100 µM
same,TGI,NCI-H23 lung,> 100 µM
same,TGI,HT29 colon,> 100 µM
same,TGI,MALME-3M melanoma,> 100 µM
same,TGI,HOP-62 NSCLC,> 100 µM
same,TGI,LOX IMVI melanoma,> 100 µM
same,TGI,SK-MEL-28 melanoma,> 100 µM
same,TGI,UO-31 renal,> 100 µM
same,TGI,EKVX NSCLC,> 100 µM
same,TGI,SK-OV-3 ovarian,> 100 µM
same,TGI,SNB-75 CNS,> 100 µM
same,TGI,TK-10 renal,> 100 µM
same,TGI,K-562 leukemia,> 100 µM
same,TGI,KM20L2 colon,> 100 µM
same,TGI,SN12C renal,> 100 µM
same,TGI,DMS 273 small cell lung,28.1 µM
same,TGI,M19-MEL melanoma,> 100 µM
same,TGI,HOP-18 NSCLC,> 100 µM
same,TGI,HCT-15 colon,> 100 µM
same,TGI,XF 498 CNS,> 100 µM
same,TGI,A498 renal,> 100 µM
same,TGI,SK-MEL-2 melanoma,> 100 µM
same,TGI,DLD-1 colon,> 100 µM
same,TGI,UACC-62 melanoma,> 100 µM
same,TGI,HL-60(TB) leukemia,> 100 µM
same,TGI,CAKI-1 renal,> 100 µM
same,TGI,COLO 205 colon,> 100 µM
same,TGI,HCC-2998 colon,> 100 µM
same,TGI,MOLT-4 leukemia,> 100 µM
same,TGI,SW-620 colon,> 100 µM
same,TGI,SF-295 CNS,> 100 µM
same,TGI,SF-268 CNS,> 100 µM
same,TGI,KM12 colon,> 100 µM
same,TGI,UACC-257 melanoma,> 100 µM
same,TGI,LXFL 529 NSCLC,> 100 µM
same,TGI,CCRF-CEM leukemia,> 100 µM
same,TGI,SR leukemia,> 100 µM
same,TGI,OVCAR-3 ovarian,> 100 µM
same,TGI,NCI-H460 lung,> 100 µM
same,TGI,A549 NSCLC,> 100 µM
same,TGI,HOP-92 NSCLC,> 100 µM
same,TGI,M14 melanoma,> 100 µM
same,TGI,OVCAR-8 ovarian,> 100 µM
same,TGI,OVCAR-5 ovarian,> 100 µM
same,TGI,HCT-116 colon,> 100 µM
same,TGI,ACHN renal,> 100 µM
same,TGI,SNB-19 CNS,> 100 µM
same,TGI,SK-MEL-5 melanoma,> 100 µM
same,TGI,SF-539 CNS,> 100 µM
same,TGI,DMS 114 small cell lung,> 100 µM
same,TGI,U251 CNS,> 100 µM
CCOC(=O)COc1ccc(OCC(=O)OCC)c2c1C(=O)CCCC2=O,TGI,IGROV1 ovarian,> 100 µM
same,TGI,NCI-H522 lung,> 100 µM
same,TGI,786-0 renal,> 100 µM
same,TGI,NCI-H23 lung,> 100 µM
same,TGI,HT29 colon,> 100 µM
same,TGI,MALME-3M melanoma,> 100 µM
same,TGI,HOP-62 NSCLC,> 100 µM
same,TGI,LOX IMVI melanoma,> 100 µM
same,TGI,SK-MEL-28 melanoma,> 100 µM
same,TGI,UO-31 renal,> 100 µM
same,TGI,RPMI-8226 leukemia,> 100 µM
same,TGI,EKVX NSCLC,> 100 µM
same,TGI,SK-OV-3 ovarian,> 100 µM
same,TGI,SNB-75 CNS,> 100 µM
same,TGI,TK-10 renal,> 100 µM
same,TGI,K-562 leukemia,> 100 µM
same,TGI,KM20L2 colon,> 100 µM
same,TGI,SN12C renal,> 100 µM
same,TGI,DMS 273 small cell lung,> 100 µM
same,TGI,M19-MEL melanoma,> 100 µM
same,TGI,HOP-18 NSCLC,> 100 µM
same,TGI,HCT-15 colon,> 100 µM
same,TGI,XF 498 CNS,> 100 µM
same,TGI,SK-MEL-2 melanoma,> 100 µM
same,TGI,DLD-1 colon,> 100 µM
same,TGI,UACC-62 melanoma,> 100 µM
same,TGI,HL-60(TB) leukemia,> 100 µM
same,TGI,COLO 205 colon,> 100 µM
same,TGI,HCC-2998 colon,> 100 µM
same,TGI,MOLT-4 leukemia,> 100 µM
same,TGI,SW-620 colon,> 100 µM
same,TGI,SF-295 CNS,> 100 µM
same,TGI,RXF 393 renal,> 100 µM
same,TGI,SF-268 CNS,> 100 µM
same,TGI,KM12 colon,> 100 µM
same,TGI,UACC-257 melanoma,> 100 µM
same,TGI,LXFL 529 NSCLC,> 100 µM
same,TGI,CCRF-CEM leukemia,> 100 µM
same,TGI,NCI-H226 lung,> 100 µM
same,TGI,SR leukemia,> 100 µM
same,TGI,OVCAR-3 ovarian,> 100 µM
same,TGI,NCI-H460 lung,> 100 µM
same,TGI,A549 NSCLC,> 100 µM
same,TGI,HOP-92 NSCLC,> 100 µM
same,TGI,M14 melanoma,> 100 µM
same,TGI,OVCAR-8 ovarian,> 100 µM
same,TGI,OVCAR-5 ovarian,> 100 µM
same,TGI,HCT-116 colon,> 100 µM
same,TGI,ACHN renal,> 100 µM
same,TGI,SNB-19 CNS,> 100 µM
same,TGI,SK-MEL-5 melanoma,0.846 µM
same,TGI,SF-539 CNS,> 100 µM
same,TGI,DMS 114 small cell lung,> 100 µM
same,TGI,U251 CNS,> 100 µM
OCc1nnn2c1CCC2,TGI,IGROV1 ovarian,> 100 µM
same,TGI,NCI-H522 lung,> 100 µM
same,TGI,OVCAR-4 ovarian,> 100 µM
same,TGI,NCI-H23 lung,> 100 µM
same,TGI,HT29 colon,> 100 µM
same,TGI,MALME-3M melanoma,> 100 µM
same,TGI,HOP-62 NSCLC,> 100 µM
same,TGI,LOX IMVI melanoma,> 100 µM
same,TGI,SK-MEL-28 melanoma,> 100 µM
same,TGI,UO-31 renal,> 100 µM
same,TGI,EKVX NSCLC,> 100 µM
same,TGI,SNB-78 CNS,> 100 µM
same,TGI,SK-OV-3 ovarian,> 100 µM
same,TGI,SNB-75 CNS,> 100 µM
same,TGI,TK-10 renal,> 100 µM
same,TGI,K-562 leukemia,> 100 µM
same,TGI,KM20L2 colon,> 100 µM
same,TGI,SN12C renal,> 100 µM
same,TGI,M19-MEL melanoma,> 100 µM
same,TGI,HOP-18 NSCLC,> 100 µM
same,TGI,HCT-15 colon,> 100 µM
same,TGI,XF 498 CNS,> 100 µM
same,TGI,SK-MEL-2 melanoma,> 100 µM
same,TGI,DLD-1 colon,> 100 µM
same,TGI,UACC-62 melanoma,> 100 µM
same,TGI,HL-60(TB) leukemia,> 100 µM
same,TGI,HCC-2998 colon,> 100 µM
same,TGI,MOLT-4 leukemia,> 100 µM
same,TGI,SW-620 colon,> 100 µM
same,TGI,SF-295 CNS,> 100 µM
same,TGI,RXF 393 renal,> 100 µM
same,TGI,KM12 colon,> 100 µM
same,TGI,UACC-257 melanoma,> 100 µM
same,TGI,LXFL 529 NSCLC,> 100 µM
same,TGI,CCRF-CEM leukemia,> 100 µM
same,TGI,SR leukemia,> 100 µM
same,TGI,OVCAR-3 ovarian,> 100 µM
same,TGI,NCI-H460 lung,> 100 µM
same,TGI,A549 NSCLC,> 100 µM
same,TGI,HOP-92 NSCLC,> 100 µM
same,TGI,M14 melanoma,> 100 µM
same,TGI,OVCAR-8 ovarian,> 100 µM
same,TGI,OVCAR-5 ovarian,> 100 µM
same,TGI,ACHN renal,> 100 µM
same,TGI,SK-MEL-5 melanoma,> 100 µM
same,TGI,SF-539 CNS,> 100 µM
same,TGI,U251 CNS,> 100 µM
